# Patent US12129246B1, “Hydroquinazoline derivatives for the treatment of a disease or disorder” (Novartis AG, priority 2023, dated 2024)
# What was measured:
# human NPR1 = target: T1, human NPR1 (Homo sapiens, UniProt P16066); assay: Cellular cGMP production assay, human NPR1 expressing CHO-K1 cells (CisBio HTRF); type: cell-based; settings: for AC50: cGMP production, 30 min at 37° C., 12-point dose-response from 30 μM; for Human NPR1 Amax (% of ANP): maximum cGMP production as percentage of the maximum cGMP produced with ANP
# T1 construct: host or cells: CHO-K1
# T1 sequence (P16066 33-1061): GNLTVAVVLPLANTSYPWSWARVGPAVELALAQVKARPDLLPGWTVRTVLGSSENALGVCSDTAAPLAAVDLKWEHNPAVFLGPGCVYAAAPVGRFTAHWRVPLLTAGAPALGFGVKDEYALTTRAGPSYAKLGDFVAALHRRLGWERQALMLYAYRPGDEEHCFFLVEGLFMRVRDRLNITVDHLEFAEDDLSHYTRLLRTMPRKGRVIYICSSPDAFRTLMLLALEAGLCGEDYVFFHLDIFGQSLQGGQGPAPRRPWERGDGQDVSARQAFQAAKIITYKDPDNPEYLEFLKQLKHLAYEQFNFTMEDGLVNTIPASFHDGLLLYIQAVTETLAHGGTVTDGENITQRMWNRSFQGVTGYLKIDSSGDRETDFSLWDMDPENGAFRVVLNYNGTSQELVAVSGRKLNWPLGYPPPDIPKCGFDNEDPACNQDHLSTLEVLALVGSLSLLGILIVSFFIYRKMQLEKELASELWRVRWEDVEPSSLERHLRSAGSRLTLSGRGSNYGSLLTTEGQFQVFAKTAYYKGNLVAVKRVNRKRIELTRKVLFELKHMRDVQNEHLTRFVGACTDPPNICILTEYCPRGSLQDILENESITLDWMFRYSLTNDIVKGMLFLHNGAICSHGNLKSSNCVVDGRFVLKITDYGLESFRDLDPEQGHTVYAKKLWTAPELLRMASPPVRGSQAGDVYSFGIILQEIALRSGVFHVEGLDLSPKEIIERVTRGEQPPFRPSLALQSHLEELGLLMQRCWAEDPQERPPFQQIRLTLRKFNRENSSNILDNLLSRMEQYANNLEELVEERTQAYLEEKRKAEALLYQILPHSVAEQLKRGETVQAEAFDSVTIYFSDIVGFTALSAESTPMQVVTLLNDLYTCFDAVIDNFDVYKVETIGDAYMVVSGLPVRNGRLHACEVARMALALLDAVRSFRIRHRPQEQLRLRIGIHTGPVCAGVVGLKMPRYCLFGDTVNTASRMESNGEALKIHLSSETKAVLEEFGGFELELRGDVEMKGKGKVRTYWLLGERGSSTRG
# Protocol: (§1) Cellular cGMP is a major second messenger that mediates cell activities and is synthesized by activated NPR1 triggered by binding of the natural ligand ANP. […] The assay was performed according to manufacturer's instructions with minor deviations. […] All compound stocks were diluted in PBS+0.1% BSA at 2-fold the final assay concentration. After addition of 10 μL/well of assay buffer (PBS+0.1% BSA+1 mM IBMX) and 10 μL/well of the compounds in different concentrations (12-point dose-response with 3-fold dilutions from a top concentration of 30 μM), the plate was incubated for 30 min at 37° C. to allow for cGMP production. In parallel, a standard curve using a calibrator (contained in the kit) was generated. The cells were lysed and a mix of cGMP-d2 and anti-cGMP-cryptate was added and incubated for 1 h at room temperature. The readout was performed using an Envision plate reader (PerkinElmer) with an excitation wavelength of 317 nm and an emission wavelength of 665 nm. cGMP concentration (Delta F [° %]) was calculated according to the following formulae: […]
# monkey NPR1 = monkey NPR1 (Macaca fascicularis, UniProt A0A7N9DBT9); assay: Cellular cGMP production assay, monkey NPR1 expressing CHO-K1 cells (CisBio HTRF); type: cell-based; settings: monkey NPR1 CHO-K1 cells
# Chain of monkey NPR1 (A0A7N9DBT9 entry or part of it): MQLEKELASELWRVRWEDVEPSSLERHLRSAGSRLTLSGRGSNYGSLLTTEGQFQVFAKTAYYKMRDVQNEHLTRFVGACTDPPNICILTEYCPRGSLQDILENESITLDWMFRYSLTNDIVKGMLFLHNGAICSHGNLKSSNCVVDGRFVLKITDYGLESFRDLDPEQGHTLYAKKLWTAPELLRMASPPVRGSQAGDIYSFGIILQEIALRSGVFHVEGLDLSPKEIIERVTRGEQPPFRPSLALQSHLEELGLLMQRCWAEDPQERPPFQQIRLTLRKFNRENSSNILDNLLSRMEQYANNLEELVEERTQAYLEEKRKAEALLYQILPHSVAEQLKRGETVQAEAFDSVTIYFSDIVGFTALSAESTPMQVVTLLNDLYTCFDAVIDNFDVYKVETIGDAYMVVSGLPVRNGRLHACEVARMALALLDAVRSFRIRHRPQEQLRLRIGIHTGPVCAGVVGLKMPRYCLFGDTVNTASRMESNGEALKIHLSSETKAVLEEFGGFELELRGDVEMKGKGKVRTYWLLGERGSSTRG
# Protocol: as §1
SMILES,AC50 (human NPR1),Human NPR1 Amax (% of ANP) (human NPR1),"AC50 (monkey NPR1; cGMP production, 30 min at 37° C., 12-point dose-response from 30 μM, read-out: Monkey NPR1 AC50)",Monkey NPR1 Amax (% of ANP) (monkey NPR1; maximum cGMP production as percentage of the maximum cGMP produced with ANP)
"CC[C@@H](Nc1nc2c(c(N[C@H](CN3CCC[C@H](C)C3)c3cnn(C)c3)n1)C[C@](C)(c1cccc(F)c1)CC2)[C@H]1CC[C@H](C(=O)O)CC1 (stereo in doubt) [Compound 130, (1S,4r)-4-((S)-1-(((S)-6-(3-fluorophenyl)-6-methyl-4-(((R)-1-(1-methyl-1H-pyrazol-4-yl)-2-((R)-3-methylpiperidin-1-yl)ethyl)amino)-5,6,7,8-tetrahydroquinazolin-2-yl)amino)propyl)cyclohexane-1-carboxylic acid]",671 nM,88.663 % of ANP,205 nM,114.798 % of ANP
"CC[C@H]([C@H]1CC[C@H](C(=O)O)CC1)N(C)c1nc2c(c(N[C@@H](CN3CCC[C@H](C)C3)c3cn(C)nc3F)n1)C[C@H](c1ccccc1)CC2 (stereo in doubt) [Compound 185, (1R,4r)-4-((R)-1-(((R)-4-(((S)-1-(3-fluoro-1-methyl-1H-pyrazol-4-yl)-2-((S)-3-methylpiperidin-1-yl)ethyl)amino)-6-phenyl-5,6,7,8-tetrahydroquinazolin-2-yl)(methyl)amino)propyl)cyclohexane-1-carboxylic acid]",201 nM,98.01 % of ANP,,
"CC[C@@H](Nc1nc2c(c(N[C@@H](CN3CCCC(CF)C3)c3cnn(C)c3)n1)C[C@H](c1cccc(F)c1)CC2)[C@H]1CC[C@H](C(=O)O)CC1 (stereo partly drawn) [Compound 175, (1R,4r)-4-((1R)-1-(((6R)-4-(((1R)-2-(3-(fluoromethyl)piperidin-1-yl)-1-(1-methyl-1H-pyrazol-4-yl)ethyl)amino)-6-(3-fluorophenyl)-5,6,7,8-tetrahydroquinazolin-2-yl)amino)propyl)cyclohexane-1-carboxylic acid]",89 nM,109.91 % of ANP,,
"CC[C@H]([C@H]1CC[C@H](C(=O)O)CC1)N(C)c1nc2c(c(N[C@@H](CN3CCC[C@H]4C[C@H]43)c3cnn(C)c3)n1)C[C@H](c1ccccc1)CC2 [Compound 176, (1R,4r)-4-((R)-1-(((R)-4-(((R)-2-((1R,6S)-2-azabicyclo[4.1.0]heptan-2-yl)-1-(1-methyl-1H-pyrazol-4-yl)ethyl)amino)-6-phenyl-5,6,7,8-tetrahydroquinazolin-2-yl)(methyl)amino)propyl)cyclohexane-1-carboxylic acid]",359 nM,107.70 % of ANP,,
"CC[C@H]([C@H]1CC[C@H](C(=O)O)CC1)N(C)c1nc2c(c(N[C@@H](CN3CCC[C@@H]4C[C@@H]43)c3cnn(C)c3)n1)C[C@H](c1ccccc1)CC2 [Compound 177, (1R,4r)-4-((R)-1-(((R)-4-(((R)-2-((1S,6R)-2-azabicyclo[4.1.0]heptan-2-yl)-1-(1-methyl-1H-pyrazol-4-yl)ethyl)amino)-6-phenyl-5,6,7,8-tetrahydroquinazolin-2-yl)(methyl)amino)propyl)cyclohexane-1-carboxylic acid]",488 nM,107.75 % of ANP,,
"CC[C@H]([C@H]1CC[C@H](C(=O)O)CC1)N(C)c1nc2c(c(N[C@@H](CN3CC[C@@H](OC)C3)c3cnn(C)c3)n1)C[C@H](c1ccccc1)CC2 [Compound 181, (1R,4r)-4-((R)-1-(((R)-4-(((R)-2-((R)-3-methoxypyrrolidin-1-yl)-1-(1-methyl-1H-pyrazol-4-yl)ethyl)amino)-6-phenyl-5,6,7,8-tetrahydroquinazolin-2-yl)(methyl)amino)propyl)cyclohexane-1-carboxylic acid]",1810 nM,101.57 % of ANP,,
"CC[C@H]([C@H]1CC[C@H](C(=O)O)CC1)N(C)c1nc2c(c(N[C@@H](CN3CCC[C@@](C)(O)C3)c3cnn(C)c3)n1)C[C@H](c1ccccc1)CC2 [Compound 182, (1R,4r)-4-((R)-1-(((R)-4-(((R)-2-((R)-3-hydroxy-3-methylpiperidin-1-yl)-1-(1-methyl-1H-pyrazol-4-yl)ethyl)amino)-6-phenyl-5,6,7,8-tetrahydroquinazolin-2-yl)(methyl)amino)propyl)cyclohexane-1-carboxylic acid]",250 nM,110.06 % of ANP,,

# More lines, main results first:
AC50 (human NPR1),Human NPR1 Amax (% of ANP) (human NPR1),SMILES,"AC50 (monkey NPR1; cGMP production, 30 min at 37° C., 12-point dose-response from 30 μM, read-out: Monkey NPR1 AC50)",Monkey NPR1 Amax (% of ANP) (monkey NPR1; maximum cGMP production as percentage of the maximum cGMP produced with ANP)
362 nM,112.78 % of ANP,"CC[C@H]([C@H]1CC[C@H](C(=O)O)CC1)N(C)c1nc2c(c(N[C@@H](CN3CCC[C@](O)(CC)C3)c3cnn(C)c3)n1)C[C@H](c1ccccc1)CC2 [Compound 178, (1R,4r)-4-((R)-1-(((R)-4-(((R)-2-((R)-3-ethyl-3-hydroxypiperidin-1-yl)-1-(1-methyl-1H-pyrazol-4-yl)ethyl)amino)-6-phenyl-5,6,7,8-tetrahydroquinazolin-2-yl)(methyl)amino)propyl)cyclohexane-1-carboxylic acid]",,
2710 nM,97.72 % of ANP,"CC[C@H]([C@H]1CC[C@H](C(=O)O)CC1)N(C)c1nc2c(c(N[C@@H](CN3CC[C@@H](O)[C@H](C)C3)c3cnn(C)c3)n1)C[C@H](c1ccccc1)CC2 [Compound 179, (1R,4r)-4-((R)-1-(((R)-4-(((R)-2-((3R,4R)-4-hydroxy-3-methylpiperidin-1-yl)-1-(1-methyl-1H-pyrazol-4-yl)ethyl)amino)-6-phenyl-5,6,7,8-tetrahydroquinazolin-2-yl)(methyl)amino)propyl)cyclohexane-1-carboxylic acid]",,
465 nM,86.52 % of ANP,"CC[C@H]([C@H]1CC[C@H](C(=O)O)CC1)N(C)c1nc2c(c(N[C@@H](CN3CCCC4(CC4)C3)c3cnn(C)c3)n1)C[C@H](c1ccccc1)CC2 [Compound 180, (1R,4r)-4-((R)-1-(methyl((R)-4-(((R)-1-(1-methyl-1H-pyrazol-4-yl)-2-(5-azaspiro[2.5]octan-5-yl)ethyl)amino)-6-phenyl-5,6,7,8-tetrahydroquinazolin-2-yl)amino)propyl)cyclohexane-1-carboxylic acid]",,
380 nM,98.57 % of ANP,"CC[C@H]([C@H]1CC[C@H](C(=O)O)CC1)N(C)c1nc2c(c(N[C@@H](CN3C[C@H](C)C[C@@H](OC)C3)c3cnn(C)c3)n1)C[C@H](c1ccccc1)CC2 [Compound 183, (1R,4r)-4-((R)-1-(((R)-4-(((R)-2-((3R,5R)-3-methoxy-5-methylpiperidin-1-yl)-1-(1-methyl-1H-pyrazol-4-yl)ethyl)amino)-6-phenyl-5,6,7,8-tetrahydroquinazolin-2-yl)(methyl)amino)propyl)cyclohexane-1-carboxylic acid]",,
940 nM,103.67 % of ANP,"CC[C@H]([C@H]1CC[C@H](C(=O)O)CC1)N(C)c1nc2c(c(N[C@@H](CN3C[C@@H](C)C[C@H](OC)C3)c3cnn(C)c3)n1)C[C@H](c1ccccc1)CC2 [Compound 184, (1R,4r)-4-((R)-1-(((R)-4-(((R)-2-((3S,5S)-3-methoxy-5-methylpiperidin-1-yl)-1-(1-methyl-1H-pyrazol-4-yl)ethyl)amino)-6-phenyl-5,6,7,8-tetrahydroquinazolin-2-yl)(methyl)amino)propyl)cyclohexane-1-carboxylic acid]",,
406 nM,110.66 % of ANP,"CC[C@H]([C@H]1CC[C@H](C(=O)O)CC1)N(C)c1nc2c(c(N[C@@H](CN3CCC[C@](C)(O)C3)c3cnn(C)c3)n1)C[C@H](c1ccccc1)CC2 [Compound 186, (1R,4r)-4-((R)-1-(((R)-4-(((R)-2-((S)-3-hydroxy-3-methylpiperidin-1-yl)-1-(1-methyl-1H-pyrazol-4-yl)ethyl)amino)-6-phenyl-5,6,7,8-tetrahydroquinazolin-2-yl)(methyl)amino)propyl)cyclohexane-1-carboxylic acid]",,
